Measured values reported in patent EP4104902B1, “COMPOUNDS AND M[…] SAME” (priority 2020, dated 2021).
pIC50: −log10 of the molar value. Read-outs that look alike come from different tables or passages of the source.

Tested on: recombinant rabies virus 1088 strain expressing Gaussia Luciferase (GLuc) (1088/GLuc)
Type: cell-based

SMILES	pIC50 (read-out: Anti-rabies activity)	pIC50 (read-out: IC50)
CCCCCCNC(=O)C12NCC3CC1CN(CCO)C2C3Cc1ccccc1 (stereo not shown) [IB-476]	> 5.30	–
CCCCCCNC(=O)C12NCC3CC1CN(CCO)C2C3CC(C)C (stereo not shown) [IB-477]	> 5.30	–
CCCCCCNC(=O)C12NCC3CC1CN(CCO)C2C3Cc1ccc(O)cc1 (stereo not shown) [IB-478]	4.52 to 5.00	–
O=C(NCc1ccc(F)cc1)C12NCC3CC1CN(CCO)C2C3Cc1ccccc1 (stereo not shown) [IB-479]	4.52 to 5.00	–
CC(C)CCN1CC2CC3CNC2(C(=O)NCc2ccc(F)cc2)C1C3Cc1ccc(O)cc1 (stereo not shown) [IB-481]	> 5.30	–
O=C(NCCc1ccccc1)C12NCC3CC1CN(CC1CCCCC1)C2C3Cc1ccccc1 (stereo not shown) [IB-484]	> 5.30	–
CCCCCCNC(=O)C12NCC3CC1CN(CCO)C2C3CCC(C)C (stereo not shown) [IB-490]	> 5.30	–
O=C(NCc1ccc(F)cc1)C12NCC3CC1CN(CCO)C2C3CCc1ccccc1 (stereo not shown) [IB-492]	> 5.30	–
CC(C)CC1C2CNC3(C(=O)NCCc4ccccc4)C(C2)CN(CC(C)C)C13 (stereo not shown) [IB-495]	> 5.30	–
CC(C)CN1CC2CC3CNC2(C(=O)NCc2ccc(F)cc2)C1C3Cc1ccc(O)cc1 (stereo not shown) [IB-498]	> 5.30	–
CC(C)CC1C2CNC3(C(=O)NCc4ccc(F)cc4)C(C2)CN(Cc2ccc(O)cc2)C13 (stereo not shown) [IB-499]	> 5.30	–
CC(C)CCC1C2CNC3(C(=O)NC(C)C)C(C2)CN(Cc2ccc(O)cc2)C13 (stereo not shown) [IB-501]	> 5.30	–
CC(C)NC(=O)C12NCC3CC1CN(Cc1ccc(O)cc1)C2C3Cc1cccc2ccccc12 (stereo not shown) [IB-502]	> 5.30	–
CC(C)CCN1CC2CC3CNC2(C(=O)NCc2ccccc2)C1C3CCC(=O)O (stereo not shown) [IB-505]	4.52 to 5.00	–
CC(C)CNC(=O)C12NCC3CC1CN(CCc1ccccc1)C2C3CCC(=O)O (stereo not shown) [IB-508]	4.52 to 5.00	–
CC(C)CNC(=O)C12NCC3CC1CN(CC1CCCCC1)C2C3CCC(=O)O (stereo not shown) [IB-510]	4.52 to 5.00	–
O=C(O)CCN1CC2CC3CNC2(C(=O)NCc2ccc(O)cc2)C1C3CCc1ccccc1 (stereo not shown) [IB-515]	4.52 to 5.00	–
O=C(O)CCN1CC2CC3CNC2(C(=O)NCc2ccc(O)cc2)C1C3Cc1cccc2ccccc12 (stereo not shown) [IB-516]	4.52 to 5.00	–
CC(C)CC1C2CNC3(C(=O)NCCC(N)=O)C(C2)CN(Cc2cccc4ccccc24)C13 (stereo not shown) [IB-520]	> 5.30	–
NC(=O)CCNC(=O)C12NCC3CC1CN(Cc1cccc4ccccc14)C2C3Cc1ccc(O)cc1 (stereo not shown) [IB-521]	4.52 to 5.00	–
NC(=O)CCNC(=O)C12NCC3CC1CN(CCc1ccccc1)C2C3Cc1ccccc1 (stereo not shown) [IB-707]	> 5.30	–
CC(C)CC1C2CNC3(C(=O)NCCC(N)=O)C(C2)CN(CCc2ccccc2)C13 (stereo not shown) [IB-708]	> 5.30	–
NC(=O)CCNC(=O)C12NCC3CC1CN(CC1CCCCC1)C2C3CCc1ccccc1 (stereo not shown) [IB-710]	> 5.30	–
NC(=O)CCNC(=O)C12NCC3CC1CN(Cc1ccc(F)cc1)C2C3Cc1ccccc1 (stereo not shown) [IB-712]	> 5.30	–
CC(C)CCNC(=O)C12NCC3CC1CN(CCO)C2C3Cc1ccccc1 (stereo not shown) [IB-714]	> 5.30	–
CC(C)CC1C2CNC3(C(=O)NCCc4ccccc4)C(C2)CN(Cc2ccc(F)cc2)C13 (stereo not shown) [IB-725]	> 5.30	–

SMILES	pIC50 (read-out: Anti-rabies activity)	pIC50 (read-out: IC50)
CC(C)CCNC(=O)C12NCC3CC1CN(CCO)C2C3Cc1cccc2ccccc12 (stereo not shown) [IB-727]	> 5.30	–
NC(=O)CCNC(=O)C12NCC3CC1CN(Cc1ccccc1)C2C3Cc1ccccc1 (stereo not shown) [IB-734]	4.52 to 5.00	–
CC(C)CN1CC2CC3CNC2(C(=O)NCCC(N)=O)C1C3Cc1cccc2ccccc12 (stereo not shown) [IB-737]	4.52 to 5.00	–
CC(C)CCNC(=O)C12NCC3CC1CN(Cc1ccc(O)cc1)C2C3CC(C)C (stereo not shown) [IB-739]	4.52 to 5.00	–
NC(=O)CCNC(=O)C12NCC3CC1CN(Cc1ccc(O)cc1)C2C3Cc1cccc2ccccc12 (stereo not shown) [IB-743]	> 5.30	–
CC(C)CCN1CC2CC3CNC2(C(=O)NCc2ccccc2)C1C3Cc1ccc(O)cc1 (stereo not shown) [IB-749]	4.52 to 5.00	–
O=C(NCc1cccc2ccccc12)C12NCC3CC1CN(Cc1cccc4ccccc14)C2C3CCc1ccccc1 (stereo not shown) [IB-804]	> 5.30	–
NC(=O)CCNC(=O)C12NCC3CC1CN(Cc1ccccc1)C2C3Cc1cccc2ccccc12 (stereo not shown) [IB-813]	> 5.30	–
O=C(NCc1ccc(F)cc1)C12NCC3CC1CN(CCO)C2C3Cc1cccc2ccccc12 (stereo not shown) [IB-831]	> 5.30	–
CC(C)CC1C2CNC3(C(=O)NCc4ccccc4)C(C2)CN(Cc2ccc(Cl)cc2)C13 (stereo not shown) [IB-864]	5.00 to 5.30	–
CC(C)CC1C2CNC3(C(=O)NCc4ccccc4)C(C2)CN(Cc2cccc(Cl)c2)C13 (stereo not shown) [IB-865]	5.00 to 5.30	–
COc1ccc(CN2CC3CC4CNC3(C(=O)NCc3ccccc3)C2C4CC(C)C)cc1 (stereo not shown) [IB-866]	5.00 to 5.30	–
Cc1ccc(CN2CC3CC4CNC3(C(=O)NCc3ccccc3)C2C4CC(C)C)cc1 (stereo not shown) [IB-867]	5.00 to 5.30	–
CC(C)CCNC(=O)C12NCC3CC1CN(CC(C)C)C2C3Cc1ccccc1 (stereo not shown) [IB-870]	4.52 to 5.00	–
CC(C)CC1C2CNC3(C(=O)NCc4ccc(Cl)cc4)C(C2)CN(CC(C)C)C13 (stereo not shown) [IB-871]	4.52 to 5.00	–
CC(C)CC1C2CNC3(C(=O)NCc4ccccc4)C(C2)CN(Cc2ccc(N(C)C)cc2)C13 (stereo not shown) [IB-873]	5.00 to 5.30	–
CC(C)CC1C2CNC3(C(=O)NCc4ccccc4)C(C2)CN(Cc2ccc(C(C)(C)C)cc2)C13 (stereo not shown) [IB-874]	5.00 to 5.30	–
CC(C)CCC1C2CNC3(C(=O)NCc4ccccc4)C(C2)CN(CC(C)C)C13 (stereo not shown) [IB-875]	4.52 to 5.00	–
CC(C)CCN1CC2CC3CNC2(C(=O)NCc2ccccc2)C1C3CC(C)C (stereo not shown) [IB-876]	4.52 to 5.00	–
CCOc1ccc(CN2CC3CC4CNC3(C(=O)NCc3ccccc3)C2C4CC(C)C)cc1 (stereo not shown) [IB-878]	4.52 to 5.00	–
CC(C)CC1C2CNC3(C(=O)NCc4ccc5ccccc5c4)C(C2)CN(Cc2ccccc2)C13 (stereo not shown) [IB-879]	> 5.30	–
CCN1CC2CC3CN(Cc4ccc(C)cc4)C(C2CC(C)C)C31C(=O)NCc1ccccc1 (stereo not shown) [IB-880]	> 5.30	–
Cc1ccc(CN2CC3CC4CN(CC(C)C)C3(C(=O)NCc3ccccc3)C2C4CC(C)C)cc1 (stereo not shown) [IB-881]	> 5.30	–
Cc1ccc(CN2CC3CC4CN(C(=O)CC(C)C)C3(C(=O)NCc3ccccc3)C2C4CC(C)C)cc1 (stereo not shown) [IB-883]	> 5.30	–
COC(=O)N1CC2CC3CN(Cc4ccc(C)cc4)C(C2CC(C)C)C31C(=O)NCc1ccccc1 (stereo not shown) [IB-885]	5.00 to 5.30	–
Cc1ccc(CN2CC3CC4CN(C(=O)OCC(C)C)C3(C(=O)NCc3ccccc3)C2C4CC(C)C)cc1 (stereo not shown) [IB-886]	5.00 to 5.30	–

SMILES	pIC50 (read-out: Anti-rabies activity)	pIC50 (read-out: IC50)
Cc1ccc(CN2CC3CC4CN(C(=O)OCc5ccccc5)C3(C(=O)NCc3ccccc3)C2C4CC(C)C)cc1 (stereo not shown) [IB-887]	5.00 to 5.30	–
Cc1ccc(CN2CC3CC4CN(C(N)=O)C3(C(=O)NCc3ccccc3)C2C4CC(C)C)cc1 (stereo not shown) [IB-888]	4.52 to 5.00	–
Cc1ccc(CN2CC3CC4CN(C(=O)NCc5ccccc5)C3(C(=O)NCc3ccccc3)C2C4CC(C)C)cc1 (stereo not shown) [IB-889]	5.00 to 5.30	–
CC(C)CC1C2CNC3(C(=O)NCc4cccc(O)c4)C(C2)CN(Cc2ccc(N(C)C)cc2)C13 (stereo not shown) [IB-891]	4.52 to 5.00	–
CC(C)CC1C2CNC3(C(=O)NCc4ccc(O)cc4)C(C2)CN(Cc2ccc(N(C)C)cc2)C13 (stereo not shown) [IB-892]	4.52 to 5.00	–
CC(C)CC1C2C3CNC1(C(=O)NCc1ccccc1)CC3CN2Cc1ccccc1 (stereo not shown) [IF-7]	5.00 to 5.30	5.07
CC(C)CCN1CC2CC3(C(=O)NCc4ccccc4)NCC2C1C3Cc1ccccc1 (stereo not shown) [IF-9]	4.52 to 5.00	4.81
NC(=O)CN1CC2CC3(C(=O)NCCc4ccccc4)NCC2C1C3Cc1cccc2ccccc12 (stereo not shown) [IF-90]	4.52 to 5.00	–
NC(=O)CN1CC2CC3(C(=O)NCc4cccc5ccccc45)NCC2C1C3Cc1cccc2ccccc12 (stereo not shown) [IF-91]	> 5.30	–
CC(C)CCN1CC2CC3(C(=O)NC(C)C)NCC2C1C3CCCNC(=N)N (stereo not shown) [IF-214]	4.52 to 5.00	–
NC(=O)CCNC(=O)C12CC3CN(CCc4ccccc4)C(C3CN1)C2CC(N)=O (stereo not shown) [IF-219]	4.52 to 5.00	–
NC(=O)CC1C2C3CNC1(C(=O)NCc1cccc4ccccc14)CC3CN2CCc1ccccc1 (stereo not shown) [IF-223]	4.52 to 5.00	–
CC(C)CNC(=O)C12CC3CN(Cc4cccc5ccccc45)C(C3CN1)C2CC(N)=O (stereo not shown) [IF-226]	4.52 to 5.00	–
NC(=O)CC1C2C3CNC1(C(=O)NCCO)CC3CN2Cc1cccc2ccccc12 (stereo not shown) [IF-230]	4.52 to 5.00	–
CC(C)CCNC(=O)C12CC3CN(CCCNC(=N)N)C(C3CN1)C2Cc1cccc2ccccc12 (stereo not shown) [IF-356]	4.52 to 5.00	–
N=C(N)NCCCN1CC2CC3(C(=O)NCCc4ccccc4)NCC2C1C3Cc1ccc(O)cc1 (stereo not shown) [IF-359]	4.52 to 5.00	–
O=C(O)CCNC(=O)C12CC3CN(CC4CCCCC4)C(C3CN1)C2Cc1cccc2ccccc12 (stereo not shown) [IF-416]	4.52 to 5.00	–
O=C(O)CCNC(=O)C12CC3CN(Cc4ccc(F)cc4)C(C3CN1)C2Cc1cccc2ccccc12 (stereo not shown) [IF-417]	4.52 to 5.00	–
O=C(O)CCC1C2C3CNC1(C(=O)NCc1cccc4ccccc14)CC3CN2CC1CCCCC1 (stereo not shown) [IF-419]	4.52 to 5.00	–
CC(C)CCC1C2C3CNC1(C(=O)NCc1cccc4ccccc14)CC3CN2CCC(=O)O (stereo not shown) [IF-422]	4.52 to 5.00	–
CC(C)CN1CC2CC3(C(=O)NCCC(=O)O)NCC2C1C3Cc1cccc2ccccc12 (stereo not shown) [IF-428]	4.52 to 5.00	–
NC(=O)CCNC(=O)C12CC3CN(Cc4cccc5ccccc45)C(C3CN1)C2Cc1ccc(O)cc1 (stereo not shown) [IF-435]	> 5.30	–
CC(C)CCN1CC2CC3(C(=O)NCCc4ccccc4)NCC2C1C3CC(C)C (stereo not shown) [IF-437]	4.52 to 5.00	–
O=C(NCCc1ccccc1)C12CC3CN(CC4CCCCC4)C(C3CN1)C2Cc1ccc(O)cc1 (stereo not shown) [IF-439]	> 5.30	–
O=C(O)CCNC(=O)C12CC3CN(CCO)C(C3CN1)C2Cc1cccc2ccccc12 (stereo not shown) [IF-444]	4.52 to 5.00	–
